Where a name gives a salt, the structure may show the parent alone.

One experiment concerns the target T1, human CPT1A (Homo sapiens, UniProt P50416).
T1 construct: made in house; host or cells: Saccharomyces cerevisiae (pESC-trp) or cultured mammalian cells (pCDNA3.1); mitochondrial extract
T1 sequence (P50416 1-773): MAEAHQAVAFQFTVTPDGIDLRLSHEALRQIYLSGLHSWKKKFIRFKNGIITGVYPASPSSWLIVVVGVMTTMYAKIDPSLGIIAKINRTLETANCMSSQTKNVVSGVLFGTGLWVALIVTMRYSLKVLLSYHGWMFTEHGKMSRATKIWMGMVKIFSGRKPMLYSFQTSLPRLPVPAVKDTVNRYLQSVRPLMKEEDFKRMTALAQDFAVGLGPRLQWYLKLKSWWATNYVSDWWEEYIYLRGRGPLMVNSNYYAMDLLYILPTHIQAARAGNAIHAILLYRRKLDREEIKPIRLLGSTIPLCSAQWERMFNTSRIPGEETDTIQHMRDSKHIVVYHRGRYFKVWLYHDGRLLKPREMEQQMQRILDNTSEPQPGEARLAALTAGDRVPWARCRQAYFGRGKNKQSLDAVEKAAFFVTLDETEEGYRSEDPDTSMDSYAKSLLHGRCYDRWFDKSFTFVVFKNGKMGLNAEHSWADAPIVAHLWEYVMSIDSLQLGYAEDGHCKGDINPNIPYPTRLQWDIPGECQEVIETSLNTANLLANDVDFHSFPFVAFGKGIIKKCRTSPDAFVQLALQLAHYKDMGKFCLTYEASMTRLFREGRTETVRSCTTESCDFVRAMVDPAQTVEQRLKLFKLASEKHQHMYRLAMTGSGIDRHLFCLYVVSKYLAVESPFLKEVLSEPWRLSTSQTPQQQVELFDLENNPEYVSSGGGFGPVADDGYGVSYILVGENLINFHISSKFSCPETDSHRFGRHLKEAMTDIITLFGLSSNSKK
In words: Human CPT1A LC/MS assay. It counts as biochemical. The following applies: dose response assay, n=17. The source says:
Nucleotide sequences encoding human CPT1 enzymes were individually cloned into the yeast expression vector pESC-trp at the Cla1 (5′ terminus) and Pac1 (3′ terminus) restriction sites by PCR amplification of the open reading frame using oligonucleotide primers designed to encode the wild-type CPT1 protein sequence. Standard molecular biology techniques were used to transform and express the CPT1 proteins in the yeast Saccharomyces cerevisiae. The yeast cells were lysed by enzymatic degradation of the cell wall by Zymolase, and the mitochondria were isolated by standard biochemical techniques. The integrity of the isolated mitochondria was monitored by determining the activity of succinate dehydrogenase in the mitochondrial preparations. The mitochondrial extracts were stored at −80° C. in buffer containing 10 mM HEPES pH 7.4 and 250 mM sucrose.
Human CPT1 (A, B, C) genes were additionally cloned into the pCDNA3.1 vector individually for expression in cultured mammalian cells. Cells expressing the exogenous CPT1A were identified and grown under standard conditions. Mammalian cells were harvested, and mitochondrial extracts prepared using standard biochemical methods. The mitochondrial extracts were stored at −80° C. in buffer containing 10 mM HEPES pH 7.4 and 250 mM sucrose.
Assays were performed in 96-well plate format. Each 100 μL reaction contained 40 mM KCl, 50 mM TrisHCl pH 7.5, and 250 mM mannitol (Assay Buffer), and 1.6 μg protein of an extract, 20 μM palmitoyl-CoA, 50 μM L-carnitine, and 10 ug/mL BSA. Reactions were incubated at room temperature and stopped after 10 minutes by extraction with 200 μL of water saturated n-butanol containing myristoyl carnitine (500 nM) as an internal standard. The samples were thoroughly mixed, and the phases separated by centrifugation. Samples were prepared for analysis with a 10 fold dilution of the n-butanol phase containing the reaction product palmitoyl carnitine into a 50:50 (acetonitrile:water) solvent for analysis. […] of prepared sample was separated on a Phenomenex Jupiter 5μ C4 reverse-phase column using an Agilent 1100 HPLC with a gradient from 50% acetonitrile (0.5% acetic acid) to 100% acetonitrile and quantified by detection with a Bruker Esquire 3000plus mass spectrometer. The abundance of the palmitoyl carnitine product was determined relative to the internal standard and the actual quantity of palmitoyl carnitine can be determined from a standard curve prepared using the n-butanol solution containing the internal standard.
Compounds were evaluated in two formats, a screening format, and a dose response format. The screening format was performed by adding 25 μL compound in 20% DMSO and Assay Buffer to 25 μL of extract containing […] and Assay Buffer, followed by a 10 minute incubation at room temperature. 50 μL of 40 μM palmitoyl-CoA in Assay Buffer was added to the reaction mixture, mixed and incubated for 10 minutes at room temperature. A negative control for activity was also performed where the carnitine was omitted from the reaction. A positive control for activity was also performed by omitting compound from the solution containing 20% DMSO and Assay Buffer. The reaction mixture was extracted and analyzed as described above. The inhibition by compound was determined by comparing the control relative activity to the relative activity observed in wells containing the compound. Relative activity was determined by subtracting the relative intensity (area palmitoyl carnitine/area myristoyl carnitine) observed in the negative control from the relative intensity observed in the experimental well, and dividing by the relative activity observed in the positive control.
[formula] Compound characterization by dose response format was performed using the above described assay conditions and a 16 point compound titration in 2 fold compound dilution steps. The DMSO concentration was kept constant at 20% (v/v) for all compound concentrations.
Consider `C[N+](C)(C)C[C@H](N)CC(=O)[O-]` [L-aminocarnitine, (R)-3-amino-4-(trimethylammonio)butanoate, reference compound], for which the IC50 (as a rule, the concentration at which inhibition is half-maximal) came out at 7 ± 2.5 µM.

The same experiment, now with this note: human CPT1A LC/MS assay, dose response format.
`CCCCCc1ccc(CCC2CCC(C(=O)N[C@H](CC(=O)[O-])C[N+](C)(C)C)O2)cc1` (stereo partly drawn) [Example S121, (3R)-3-(5-(4-pentylphenethyl)tetrahydrofuran-2-carboxamido)-4-(trimethylammonio)butanoate] showed a half-inhibitory concentration (IC50) of 1 to 10 µM. On to `Cc1cccc(CCc2ccc(S(=O)(=O)N[C@H](CC(=O)O)C[N+](C)(C)C)s2)c1` [Example S77, (R)-3-carboxy-N,N,N-trimethyl-2-(5-(3-methylphenethyl)thiophene-2-sulfonamido)propan-1-aminium 2,2,2-trifluoroacetate], for which the IC50 lay in the range of 10 to 100 µM.

For `CCCCCc1ccc(CCc2ccc(C(=O)N[C@H](CC(=O)O)C[N+](C)(C)C)s2)cc1` [Example S102, (R)-3-carboxy-N,N,N-trimethyl-2-(5-(4-pentylphenethyl)thiophene-2-carboxamido)propan-1-aminium 2,2,2-trifluoroacetate], the IC50 was at most 1 µM. For `CN(C)C[C@@H](CC(=O)O)NC(=O)N(C)c1ccc(Oc2ccccc2)cc1` [Example S33, (R)-4-(dimethylammonio)-3-(3-methyl-3-(4-phenoxyphenyl)-ureido)butanoate], the IC50 was above 2500 µM.

For the compound `CCCCCCCCCCCCN(c1ccccc1)S(=O)(=O)N[C@H](CC(=O)[O-])C[N+](C)(C)C` [Example S32, (R)-3-(N-dodecyl-N-phenylsulfamoylamino)-4-(trimethylammonio)-butanoate], the IC50 is 10 to 100 µM.

Take `CCCCCCCCOC(=O)Nc1ccc(S(=O)(=O)N[C@H](CC(=O)O)C[N+](C)(C)C)cc1` [Example S73, (R)-3-carboxy-N,N,N-trimethyl-2-(4-(octyloxycarbonylamino)phenyl-sulfonamido)propan-1-aminium 2,2,2-trifluoroacetate]: the 50% inhibitory concentration (IC50) lay within 10 to 100 µM.

Consider `C[N+](C)(C)C[C@@H](CC(=O)[O-])NC(=O)Nc1ccc(C(F)(F)F)cc1Cl` [Example S6, (R)-3-(3-(2-chloro-4-(trifluoromethyl)phenyl)ureido)-4-(trimethylammonio)-butanoate], for which the IC50 is 100 to 1000 µM. `C[N+](C)(C)C[C@@H](CC(=O)O)NC(=O)c1ccc(C#Cc2ccccc2)cc1` [Example S62, (R)-3-(4-(phenylethynyl)benzamido)-4-(trimethylammonio)butanoate 2,2,2-trifluoroacetate] yielded a 50% inhibitory concentration (IC50) of 10 to 100 µM. Compound `CC(C)(C)c1ccc(OCc2ccc(C(=O)N[C@H](CC(=O)[O-])C[N+](C)(C)C)o2)cc1` [Example S60, (R)-3-(5-((4-tert-butylphenoxy)methyl)furan-2-carboxamido)-4-(trimethyl-ammonio)butanoate] returned an IC50 of 100 to 1000 µM. `CCCCc1ccc(NC(=O)N[C@H](CC(=O)[O-])C[N+](C)(C)C)c(C)c1` [Example S13, (R)-2-(3-(4-Butyl-2-methylphenyl)ureido)-3-carboxy-N,N,N-trimethylpropan-1-aminium] had an IC50 of 1000 to 2500 µM. The compound `CCCCCCCCc1ccc(NS(=O)(=O)N[C@H](CC(=O)[O-])C[N+](C)(C)C)cc1` [Example S30, (R)-3-(N-(4-octylphenyl)sulfamoylamino)-4-(trimethylammonio)butanoate] returned an IC50 of at most 1 µM. On to `CCCCCc1ccc(C#Cc2ccc(C(=O)N[C@H](CC(=O)O)C[N+](C)(C)C)s2)cc1` [Example S96, (R)-3-carboxy-N,N,N-trimethyl-2-(5-((4-pentylphenyl)ethynyl)-thiophene-2-carboxamido)propan-1-aminium 2,2,2-trifluoroacetate], for which the IC50 is at most 1 µM. The compound `Cc1nc(-c2ccccc2)sc1NC(=O)N[C@H](CC(=O)[O-])C[N+](C)(C)C` [Example S9, (R)-3-(3-(4-methyl-2-phenylthiazol-5-yl)ureido)-4-(trimethylammonio)-butanoate] gave an IC50 of 1000 to 2500 µM. Still for that read-out and setting: as for `C[N+](C)(C)C[C@@H](CC(=O)O)NC(=O)c1ccc(-c2cccs2)s1` [Example S44, (R)-3-(2,2′-bithiophene-5-carboxamido)-4-(trimethylammonio)butanoate], the figure is 100 to 1000 µM; as for `C[N+](C)(C)C[C@@H](CC(=O)[O-])NC(=O)c1ccc(Br)o1` [Example S114, (R)-3-(5-bromofuran-2-carboxamido)-4-(trimethylammonio)butanoate], 100 to 1000 µM; as for `Cc1ncoc1C(=O)N[C@H](CC(=O)O)C[N+](C)(C)C` [Example S49, (R)-3-carboxy-N,N,N-trimethyl-2-(4-methyloxazole-5-carboxamido)-propan-1-aminium trifluoroacetate], 100 to 1000 µM. `C[N+](C)(C)C[C@@H](CC(=O)O)NC(=O)c1ccc(C#Cc2ccccc2)s1` [Example S43, (R)-3-(5-(phenylethynyl)thiophene-2-carboxamido)-4-(trimethylammonio)-butanoate] gave an IC50 of at most 1 µM. On the same count and under the same terms, as for `C[N+](C)(C)C[C@@H](CC(=O)[O-])NC(=O)Nc1ccccc1-c1ccccc1` [Example S101, (R)-2-(3-biphenyl-2-ylureido)-3-carboxy-N,N,N-trimethylpropan-1-aminium], the figure is 1000 to 2500 µM; as for `CCCCCCOc1cccc(CCc2ccc(C(=O)N[C@H](CC(=O)O)C[N+](C)(C)C)o2)c1` [Example S125, (R)-3-carboxy-2-(5-(3-(hexyloxy)phenethyl)furan-2-carboxamido)-N,N,N-trimethylpropan-1-aminium 2,2,2-trifluoroacetate], at most 1 µM.

Compound `C[N+](C)(C)C[C@@H](CC(=O)O)NC(=O)Nc1ccc(F)c(F)c1F` [Example S14, (R)-3-Carboxy-N,N,N-trimethyl-2-(3-(2,3,4-trifluorophenyl)ureido)-propan-1-aminium acetate] showed an IC50 of 1000 to 2500 µM. Still for that read-out and setting: as for `CCCCCCOc1cccc(C#Cc2ccc(C(=O)N[C@H](CC(=O)[O-])C[N+](C)(C)C)o2)c1` [Example S122, (R)-3-(5-((3-(hexyloxy)phenyl)ethynyl)furan-2-carboxamido)-4-(trimethylammonio)butanoate], the figure is 1 to 10 µM; as for `C[N+](C)(C)C[C@@H](CC(=O)[O-])NC(=O)Nc1ccccc1Oc1ccccc1` [Example S100, (R)-3-carboxy-N,N,N-trimethyl-2-(3-(2-phenoxyphenyl)ureido)propan-1-aminium], above 2500 µM. On the same count and under the same terms, next, `Cc1ccoc1C(=O)Nc1ccc(C(=O)N[C@H](CC(=O)[O-])C[N+](C)(C)C)cc1` [Example S5, (R)-3-(4-(3-methylfuran-2-carboxamido)benzamido)-4-(trimethylammonio)-butanoate]: 100 to 1000 µM.

The values above are taken from patent US8410150B2, “Inhibitors of carnitine palmitoyltransferase and treating cancer” (University Health Network, priority 2007, dated 2013).
